In US11098032B2, “Pyran dervatives as CYP11A1 (cytochrome P450 monooxygenase 11A1) inhibitors” (ORION CORPORATION, priority 2016, dated 2021) one finds IC50 data, which are given here for 14 compounds.

Where only a bound is given, the exact number is not on record here.

The term IC50 denotes the concentration needed to halve the response being measured.

In this assay the target is T1, CYP11A1 (Homo sapiens, UniProt P05108).
T1 construct: human H295R adrenocortical carcinoma cell line was used as source of enzyme; endogenous in cells; host or cells: H295R human adrenocortical carcinoma cells
T1 sequence (P05108 40-521): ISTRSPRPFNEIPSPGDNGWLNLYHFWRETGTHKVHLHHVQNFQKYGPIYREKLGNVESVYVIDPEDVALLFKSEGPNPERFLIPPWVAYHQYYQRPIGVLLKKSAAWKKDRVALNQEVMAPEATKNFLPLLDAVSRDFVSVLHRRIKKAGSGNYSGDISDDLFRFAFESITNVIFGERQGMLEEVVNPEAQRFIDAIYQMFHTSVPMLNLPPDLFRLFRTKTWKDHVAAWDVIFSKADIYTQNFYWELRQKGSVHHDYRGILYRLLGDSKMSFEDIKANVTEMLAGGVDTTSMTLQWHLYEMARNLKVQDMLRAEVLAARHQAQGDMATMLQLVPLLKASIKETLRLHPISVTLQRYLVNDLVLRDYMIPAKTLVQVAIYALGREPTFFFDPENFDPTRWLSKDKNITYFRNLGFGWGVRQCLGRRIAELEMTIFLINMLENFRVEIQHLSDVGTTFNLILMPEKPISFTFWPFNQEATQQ
Kind of assay: CYP11A1 inhibition: modified isocaproic acid release assay (IARA) in H295R cells. The assay is classed as cell-based. To be noted: human H295R adrenocortical carcinoma cells treated three days, 3 nM [24,25-3H]-labelled cholesterol, 1% DMSO, 10 concentrations in duplicates; read-out: IC50 of the test compounds on CYP11A1 inhibition. The method, boiled down: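 H295R adrenocortical cells treated three days with test compounds at 10 concentrations in duplicate plus 3 nM [24,25-3H]-cholesterol, 1% DMSO final. Released radiolabelled isocaproic acid measured by scintillation counting after dextran-coated charcoal extraction; IC50 determined.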
Regarding `CS(=O)(=O)c1ccc(COc2coc(CN3CCc4ccccc4C3)cc2=O)cc1` [Compound 14, 2-((3,4-Dihydroisoquinolin-2(1H)-yl)methyl)-5-((4-(methylsulfonyl)benzyl)oxy)-4H-pyran-4-one], the IC50 was 301 to 2000 nM.

Turning to `O=C(c1ccc(COc2coc(CN3Cc4ccccc4C3)cc2=O)cc1)N1CCC1` [Compound 129, 5-((4-(Azetidine-1-carbonyl)benzyl)oxy)-2-(isoindolin-2-ylmethyl)-4H-pyran-4-one], the IC50 was less than 150 nM.

On to `CS(=O)(=O)NCC1CCC(COc2coc(CN3Cc4ccccc4C3)cc2=O)CC1` (centres unmarked) [Compound 173, N-((4-(((6-(Isoindolin-2-ylmethyl)-4-oxo-4H-pyran-3-yl)oxy)methyl)cyclohexyl)-methyl)methanesulfonamide], for which the IC50 is less than 150 nM.

Turning to `C=C(C)c1ccc(COc2coc(CN3Cc4ccccc4C3)cc2=O)cc1` [Compound 47], the IC50 was less than 150 nM.

As for `CS(=O)(=O)c1ccc(COc2coc(CN3Cc4ccc([N+](=O)[O-])cc4C3)cc2=O)cc1` [Compound 68, 5-((4-(Methylsulfonyl)benzyl)oxy)-2-((5-nitroisoindolin-2-yl)methyl)-4H-pyran-4-one], the IC50 lay within 150 to 300 nM.

With `CS(=O)(=O)N1CCC(COc2coc(Cn3cc4ccc(C(F)(F)F)cc4c3)cc2=O)CC1` [Compound 287, 5-((1-(Methylsulfonyl)piperidin-4-yl)methoxy)-2-((5-(trifluoromethyl)-2H-isoindol-2-yl)methyl)-4H-pyran-4-one], the IC50 was 301 to 2000 nM.

As for `NS(=O)(=O)c1ccc(COc2coc(CN3Cc4ccccc4C3)cc2=O)cc1` [Compound 13, 4-(((6-(Isoindolin-2-ylmethyl)-4-oxo-4H-pyran-3-yl)oxy)methyl)benzenesulfonamide], the IC50 lay within 301 to 2000 nM.

Consider `CC(C)S(=O)(=O)N1CCC(F)(COc2coc(CN3Cc4ccccc4C3)cc2=O)CC1` [Compound 236, 5-((4-Fluoro-1-(isopropylsulfonyl)piperidin-4-yl)methoxy)-2-(isoindolin-2-ylmethyl)-4H-pyran-4-one], for which the IC50 was in the range of 150 to 300 nM.

On to `N=S1(=O)CCC(COc2coc(CN3Cc4ccccc4C3)cc2=O)CC1` (centres unmarked) [Compound 242, 5-((1-Imino-1-oxidohexahydro-1λ^6-thiopyran-4-yl)methoxy)-2-(isoindolin-2-ylmethyl)-4H-pyran-4-one], for which the IC50 lay in the range of 301 to 2000 nM.

Regarding `CN(C)C(=O)c1ccc(COc2coc(CN3Cc4ccc(C(F)(F)F)cc4C3)cc2=O)cc1` [Compound 139, N,N-Dimethyl-4-(((4-oxo-6-((5-(trifluoromethyl)isoindolin-2-yl)methyl)-4H-pyran-3-yl)oxy)methyl)benzamide], the IC50 is less than 150 nM.

Turning to `O=C(c1ccc(COc2coc(CN3Cc4ccccc4C3)cc2=O)cc1)N1CCCCC1` [Compound 128, 2-(Isoindolin-2-ylmethyl)-5-((4-(piperidine-1-carbonyl)benzyl)oxy)-4H-pyran-4-one], the IC50 was 150 to 300 nM.

On to `O=C(c1ccc(COc2coc(CN3Cc4ccccc4C3)cc2=O)cc1)N1CCCC1` [Compound 122, 2-(Isoindolin-2-ylmethyl)-5-((4-(pyrrolidine-1-carbonyl)benzyl)oxy)-4H-pyran-4-one], for which the IC50 is less than 150 nM.

As to `O=C(c1ccc(COc2coc(CN3Cc4ccccc4C3)cc2=O)cc1)N1CCCC(O)C1` (centres unmarked) [Compound 160, 5-((4-(3-Hydroxypiperidine-1-carbonyl)benzyl)oxy)-2-(isoindolin-2-ylmethyl)-4H-pyran-4-one], the IC50 was in the range of 301 to 2000 nM.

For `CC(C)CC(=O)C(=O)N1CCC(COc2coc(CN3Cc4ccccc4C3)cc2=O)CC1` [Compound 249, 1-(4-(((6-(Isoindolin-2-ylmethyl)-4-oxo-4H-pyran-3-yl)oxy)methyl)piperidin-1-yl)-4-methylpentane-1,2-dione], the IC50 was less than 150 nM.
